Measured values: patent US12496315B2, “Compositions for drug delivery and methods of use thereof” (Stellular Bio, Inc., priority 2018, dated 2025)

Experiments:
[1] = tested on: iPSC differentiation cultures on Laminin 521; test: WNT agonist addition during iPSC directed differentiation; assay type: cell-based, human; conditions: for Stage 1 differentiation efficiency at day 6, CD31 and CD34 immunofluorescence: first 48 hours
Excerpt: WNT signaling is important during development. The GSK3 kinase inhibitors CHIR98014 and CHIR99021 act as WNT agonists. […] The control and CHIR98014 cultures were then transitioned to Stage 2, where the production and release of preMKs were tracked by immunofluorescence staining of CD41 and CD43.

iPSCs = test: Soluble Laminin 521 addition in 3D iPSC differentiation, preMK yield; assay type: cell-based, human; conditions: for Stage 2 preMK yields vs control: addition at Day −1 or Day 6
Description: […] 24 hours later, the media was replaced with Stage 1 media and media exchanges were performed for 6 days. Media was then exchanged with Stage 2 media, with or without soluble Laminin 521. 24 hours later, daily half media exchanges were performed for up to 6 additional days. […] To determine if the effect of Laminin 521 could also be observed in agitated 3D cultures, iPSCs were dissociated as single cells and 1.5 million cells were seeded into each well of a 6-well ultra-low adherent plate containing StemFlex and the Rock inhibitor H1152 (control media), with or without soluble recombinant Laminin 521, and placed on an orbital shaker. 24 hours later, the media was replaced with Stage 1 media and media exchanges were performed for 6 days. Media was then exchanged with Stage 2 media, with or without soluble Laminin 521. 24 hours later, daily half media exchanges were performed for up to 6 additional days.

For CHIR98014, the “Stage 1 differentiation efficiency at day 6, CD31 and CD34 immunofluorescence” value ([1]; 0.6 μM) was “dramatic increase” and the “Stage 2 output, visual estimation of CD41+ cells” value ([1]; 0.6 μM, first 48 hours of Stage 1) was “higher output during Stage 2”.

For “Laminin 521: soluble recombinant Laminin 521”, the “Stage 2 preMK yields vs control” value (iPSCs; 6-well ultra-low adherent plate on orbital shaker) was “increased the preMK yields”, the “Stage 2 preMK yields vs control” value (iPSCs; 96-well U-bottom ultra-low adherent plate) was “increased the preMK yields” and the “Laminin 521 effect on preMK yields” value (iPSCs; single cell passaged iPSCs aggregated in NutriStem) was “amplified”.

Cc1c[nH]c(-c2cnc(NCCNc3ccc(C#N)cn3)nc2-c2ccc(Cl)cc2Cl)n1 [CHIR99021] was tested, and the “Stage 1 differentiation efficiency at day 6, CD31 and CD34 immunofluorescence” value ([1]; 6 μM) was “dramatic increase”.
